This is an account of results in patent publication US4474977A, “Amino-alcohol derivatives” (Continental Pharma S.A., priority 1977, dated 1984).

In assay [1] the test system is femoral arterial circulation. As to the kind of experiment: peripheral vasodilator activity on anaesthetized dog, femoral arterial perfusion pressure. As to conditions: 30 μg/kg injected in femoral perfusion (some also at other doses); in words. The assay is classed as in vivo. As to the method:
The peripheral vasodilator activity of the products according to the invention was measured on anaesthetized dog at the level of the femoral arterial circulation. To this end, the femoral artery the collaterals of which were ligaturated was perfused with a constant flow rate of blood taken from aorta. Thus the perfusion pressure measured at the level of the femoral artery, varied as a function of the resistance of perfused area. The tested products and the corresponding solvents were directly injected in the system at the dose of 30 μg/kg. The blood circulation rate being maintained constant, a vasodilation was thus measured by a decrease of the perfusion pressure. The latter is rated in comparison with the action of papaverine considered as standard and injected once per group of 4 products.
When being of interest, the products were tested at other doses under the same conditions. The vasodilation activity was rated as follows:
+: 1/3 of the papaverine activity
++: 2/3 of the papaverine activity
+++: activity equal to that of papaverine (i.e. 30 to 40 mm Hg)
++++: activity higher than that of papaverine.

The test system of a further assay is guinea pig ileum. Nature of the assay: antispasmodic activity against contractions of guinea pig ileum induced by histamine and acetylcholine. As to conditions: Cavia porcellus. The method, then:
The antispasmodic activity of the products according to the invention was tested against contractions of guinea pig ileum, such as induced by histamine and acetylcholine. These tests allow to reveal an antihistaminic activity, an anticholinergic activity or a musculotropic antispasmodic activity. The response to the contracting agent (submaximum concentration)was repeated every 5 minutes before and after injection of increasing doses of the tested products (10^-8 to 10^-5 M). The various doses were added at intervals of 20 minutes or of the time necessary to the development of the maximum effect.
The percentage of inhibition under the influence of tested products was calculated and the theoretical concentration ensuring 50% inhibition was graphically determined for each experience. These values were expressed as -log IC50 (M). The standard value for papaverine was 4.50, namely an effective concentration of 30 μM.

Where [2] appears, read: 50% inhibition of contractions, converted from -log IC50, read-out: effective concentration / concentration corresponding to -log IC50 (converted).
Where [3] appears, read: contractions induced by histamine and acetylcholine, 10^-8 to 10^-5 M, read-out: -log IC50 (M), antispasmodic activity (converted).
[4] abbreviates: read-out: -log IC50 (M), antispasmodic activity (converted).
Where [5] appears, read: read-out: effective concentration / concentration corresponding to -log IC50 (converted).

Like-named read-outs stand apart in the source and are kept apart here.

Take `CCCCCCCCNC(C)C(OC(=O)C(C)C)c1ccc(SC(C)C)cc1` (centres unmarked) [Compound 4]: the “peripheral vasodilator activity (compared with papaverine)” value in assay [1] was “at least equal to that of papaverine”. Moreover, the IC50 in the assay with guinea pig ileum (setting [2]) and in the assay with guinea pig ileum (setting [3]) was less than 1e-06 M in each case.
Take `CCCCCCCCNC(C)C(O)c1ccc(OCC(C)C)cc1` (centres unmarked) [Compound 78]: the “peripheral vasodilator activity (compared with papaverine)” value in assay [1] is “at least equal to that of papaverine”. The IC50 with guinea pig ileum (setting [4]) and in the assay with guinea pig ileum (setting [5]) was less than 1e-06 M in each case.
Consider `CCCCCCCCNC(C)C(OC(=O)CCc1ccccc1)c1ccc(SC(C)C)cc1` (centres unmarked) [Compound 32], for which the IC50 in the assay with guinea pig ileum (setting [2]) and in the assay on guinea pig ileum (setting [3]) was less than 1e-06 M in each case.
Regarding `CCCCCCCCCCCCNC(C)C(O)c1ccc(C(C)C)cc1` (centres unmarked) [Compound 82], in assay [1], the “peripheral vasodilator activity (compared with papaverine)” value was “at least equal to that of papaverine”.
As to `CCCCCCCCNC(C)C(OC(=O)CCC)c1ccc(SC(C)C)cc1.Cl` (centres unmarked) [Compound 6, 1-Butyryloxy-1-(4-isopropylthiophenyl)-2-n-octylaminopropane hydrochloride], in assay [1], the “peripheral vasodilator activity (compared with papaverine)” value is reported as “at least equal to that of papaverine”. The IC50 in the assay with guinea pig ileum (setting [2]) and in the assay on guinea pig ileum (setting [3]) was less than 1e-06 M throughout.
Turning to `CCCCCCCCNC(C)C(O)c1ccc(C(C)C)cc1` (centres unmarked) [Compound 81, 1-(4-isopropylphenyl)-2-n-octylamino-1-propanol], the “peripheral vasodilator activity (compared with papaverine)” value in assay [1] is recorded as “at least equal to that of papaverine”. For the same molecule, the IC50 with guinea pig ileum (setting [4]) and in the assay with guinea pig ileum (setting [5]) was less than 1e-06 M in each case.
Consider `CCCCCCCCNC(C)C(OC(=O)CCCCC(=O)OC)c1ccc(SC(C)C)cc1` (centres unmarked) [Compound 31], for which the IC50 in the assay with guinea pig ileum (setting [2]) and in the assay on guinea pig ileum (setting [3]) was less than 1e-06 M in each case.
Turning to `CCCCCCNC(C)C(O)c1ccccc1` (centres unmarked) [Compound 83], the “peripheral vasodilator activity (compared with papaverine)” value in assay [1] is on record as “at least equal to that of papaverine”. The IC50 with guinea pig ileum (setting [4]) and in the assay on guinea pig ileum (setting [5]) was less than 1e-06 M throughout.
As for `CC(C)Sc1ccc(C(OC(=O)C(C)C)C(C)NCCOc2ccccc2)cc1` (centres unmarked) [Compound 22], the IC50 in the assay with guinea pig ileum (setting [2]) and in the assay with guinea pig ileum (setting [3]) was less than 1e-06 M in each case.
Take `CCCCCCCCNC(C)C(OC(=O)C1CC1)c1ccc(SC(C)C)cc1` (centres unmarked) [Compound 28]: the IC50 in the assay with guinea pig ileum (setting [2]) and with guinea pig ileum (setting [3]) was less than 1e-06 M in each case.
For `CCCCCCCCNC(C)C(OC(=O)C1CCC1)c1ccc(SC(C)C)cc1` (centres unmarked) [Compound 9], in assay [1], the “peripheral vasodilator activity (compared with papaverine)” value is reported as “at least equal to that of papaverine”. In addition, the IC50 in the assay with guinea pig ileum (setting [2]) and in the assay on guinea pig ileum (setting [3]) was less than 1e-06 M each time.
For the molecule `CC(C)Sc1ccc(C(OC(=O)C(C)C)C(C)NCCCCc2ccccc2)cc1` (centres unmarked) [Compound 26], the “peripheral vasodilator activity (compared with papaverine)” value in assay [1] was “at least equal to that of papaverine”. Also, the IC50 in the assay with guinea pig ileum (setting [2]) and in the assay with guinea pig ileum (setting [3]) was less than 1e-06 M each time.
For `CCCCCCCCNC(C)C(OC(C)=O)c1ccc(SC2CCCC2)cc1` (centres unmarked) [Compound 15], the “peripheral vasodilator activity (compared with papaverine)” value in assay [1] is “at least equal to that of papaverine”. Further, the IC50 in the assay with guinea pig ileum (setting [4]) and in the assay with guinea pig ileum (setting [5]) was less than 1e-06 M in each case.
Consider `CCCCCCNC(C)C(O)c1ccc(OCC(C)C)cc1` (centres unmarked) [Compound 79], for which, in assay [1], the “peripheral vasodilator activity (compared with papaverine)” value is “at least equal to that of papaverine”.
For `COc1ccc(Cc2nccc3cc(OC)c(OC)cc23)cc1OC` [papaverine, reference compound], the IC50 in the assay on guinea pig ileum (setting [4]) was 3.16e-05 M; in the assay on guinea pig ileum (setting [5]), 3e-05 M.
For the molecule `CCCCCCCCNC(C)C(OC(=O)CC)c1ccc(SC2CCCCC2)cc1` (centres unmarked) [Compound 11], the IC50 with guinea pig ileum (setting [2]) and with guinea pig ileum (setting [3]) was less than 1e-06 M in each case.
As for `CCCCCCCCCCCCNC(C)C(O)c1ccc(OC)cc1` (centres unmarked) [Compound 88], the IC50 in the assay on guinea pig ileum (setting [4]) and in the assay with guinea pig ileum (setting [5]) was less than 1e-06 M in each case.
For `CCCCCCCCN[C@@H](C)[C@@H](OC(=O)C1CCCCC1)c1ccc(SC(C)C)cc1` (relative stereo) [Compound 29], the IC50 in the assay on guinea pig ileum (setting [2]) and in the assay with guinea pig ileum (setting [3]) was less than 1e-06 M each time.
On to `CCCCCCCCNC(C)C(OC(=O)CC)c1ccc(SC(C)C)cc1` (centres unmarked) [Compound 2], for which the IC50 in the assay with guinea pig ileum (setting [2]) and with guinea pig ileum (setting [3]) was less than 1e-06 M in each case.
